Measurements: US10155766B2, “Pyrazolopyrimidine antibacterial agents” (priority 2016, dated 2018)
Entries after “also recorded” stand apart in the source; their conditions may differ.

What was measured:
[1] = test system: Burkholderia thailandensis (E 264); test: microbe, parasite or virus in culture; assay type: cell-based; settings: for zone of inhibition at 100 µM / zone of inhibition at 500 µM / zone of inhibition at 1000 µM: Burkholderia thailandensis, read-out: Zone of inhibition (diameter, in millimeter) B. thailandensis; for zone of inhibition at 100 µM: Conc. 0.1 mM; for zone of inhibition at 500 µM: Conc. 0.5 mM; for zone of inhibition at 1000 µM: Conc. 1.0 mM
[2] = test system: Pseudomonas aeruginosa (ATCC 27853); test: microbe, parasite or virus in culture; assay type: cell-based; settings: for zone of inhibition at 100 µM / zone of inhibition at 500 µM / zone of inhibition at 1000 µM: Pseudomonas aeruginosa, ATCC27853, read-out: Zone of inhibition (diameter, in millimeter) P. aeruginosa; for zone of inhibition at 100 µM: Conc. 0.1 mM; for zone of inhibition at 500 µM: Conc. 0.5 mM; for zone of inhibition at 1000 µM: Conc. 1.0 mM
[3] = Solubility observed in work-up; settings: in water and ethyl acetate
BtIspD = target: T1, BtIspD (Burkholderia thailandensis, UniProt Q2SWT6); assay type: binding
T1 construct: 6xHis (AVA0421 vector, 3C-cleavable) (N, cleaved yes); made in house; host or cells: E. coli BL21(DE3)R3 Rosetta Oxford
T1 sequence (Q2SWT6 1-236): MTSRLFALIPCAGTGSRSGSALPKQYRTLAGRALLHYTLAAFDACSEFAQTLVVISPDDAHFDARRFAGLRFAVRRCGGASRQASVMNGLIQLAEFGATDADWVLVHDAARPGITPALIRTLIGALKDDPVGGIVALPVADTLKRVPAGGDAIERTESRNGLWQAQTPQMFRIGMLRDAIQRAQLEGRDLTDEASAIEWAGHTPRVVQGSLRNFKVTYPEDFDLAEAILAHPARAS

[4] = target: T2, Mycobacterium paratuberculosis (Mp) IspD (Mycolicibacterium paratuberculosis, UniProt Q743W5); assay type: binding
T2 sequence (Q743W5 1-235): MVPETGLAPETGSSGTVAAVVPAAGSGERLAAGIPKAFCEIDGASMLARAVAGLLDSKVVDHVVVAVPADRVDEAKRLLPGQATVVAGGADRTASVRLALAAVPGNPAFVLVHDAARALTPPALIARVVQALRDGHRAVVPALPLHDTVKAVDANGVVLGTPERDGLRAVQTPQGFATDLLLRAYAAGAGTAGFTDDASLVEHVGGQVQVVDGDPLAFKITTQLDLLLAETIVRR

[5] = test system: Mycobacterium abscessus (Ma) IspE; assay type: binding
BpIspF = BpIspF (Burkholderia pseudomallei, UniProt Q63T71); assay type: binding, B. pseudomallei
BpIspF, sequence (Q63T71 whole entry, looked up): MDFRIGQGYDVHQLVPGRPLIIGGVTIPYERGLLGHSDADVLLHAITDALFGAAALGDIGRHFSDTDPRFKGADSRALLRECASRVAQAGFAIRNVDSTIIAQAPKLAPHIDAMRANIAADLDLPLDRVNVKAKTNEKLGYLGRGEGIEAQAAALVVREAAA

BtIspE = assay type: binding, Burkholderia thailandensis

SMILES | zone of inhibition at 100 µM [1] | zone of inhibition at 500 µM [1] | zone of inhibition at 1000 µM [1] | zone of inhibition at 100 µM [2] | zone of inhibition at 500 µM [2] | zone of inhibition at 1000 µM [2] | melting point | solubility (in words) [3] | growth inhibition of B. thailandensis (in words) [1] | growth inhibition of P. aeruginosa (in words) [2] | STD-NMR binding to BtIspD (in words) (BtIspD) | fragment binding to MpIspD (in words) [4] | fragment binding to MaIspE (in words) [5] | fragment binding to BpIspF (in words) (BpIspF) | concentration at which inhibitory activity against kanamycin resistant P. aeruginosa is shown [2] | STD-NMR binding to BtIspE (in words) (BtIspE)
Cn1ncc2c(NCCO)ncnc21 [Compound 3] | 0 mm | 0 mm | 0 mm | 0 mm | 15 mm | 21 mm | 196 to 198 °C | partially soluble | – | – | – | – | – | – | – | –
Cn1ncc2c(NCc3ccc(Cl)cc3)ncnc21 [Compound 17] | 0 mm | 0 mm | 0 mm | 0 mm | 0 mm | 0 mm | 197 to 199 °C | – | did not show measurable growth inhibition | did not show measurable growth inhibition | strongest binders | hit and clear fragment binder | hit and clear fragment binder | very weak binder below the STD-NMR hit threshold | – | –
Cn1ncc2c(NCCc3ccc(Cl)cc3Cl)ncnc21 [Compound 29] | 6 mm | 10 mm | 18 mm | 0 mm | 12 mm | 18 mm | 145 to 147 °C | – | most potent compound tested | measurable potency | strongest binders | – | – | – | 0.5 mM | high % STD values; also recorded: highest % STD value; also recorded: significant interactions with the active site of BtIspE
